Measured values taken from patent US20230181521A1, “IS[…] ANALOGS OF 5,6-METHYLENEDIOXY-2-AMINOINDANE (MDAI)” (Terran Biosciences, Inc., priority 2021, published 2023).
Structures can show the parent of a compound that is named as a salt.

What was measured:
[1] = Metabolic stability in human liver microsomes; assay type: in vitro ADME; details: for half-life at 0.25 μM: pH 7.4; for microsomal CLint at 0.25 μM: pH 7.4, read-out: CLint (μL/min/mg protein); for in vitro clearance compared with MDAI HCl salt (reference compound): tested as racemic mixtures
Description: Microsomal Assay: Human liver microsomes (20 mg/mL) were obtained. β-nicotinamide adenine dinucleotide phosphate, reduced form (NADPH), magnesium chloride (MgCl2), and dimethyl sulfoxide (DMSO) are purchased from Sigma-Aldrich.
Determination of Metabolic Stability: 7.5 mM stock solutions of test compounds of the above structural formula (e.g., of an embodiment or aspect of embodiment thereof described herein), or pharmaceutically acceptable salt thereof, are prepared in DMSO. […] The diluted microsomes are added to wells of a 96-well deep-well polypropylene plate in triplicate. […] Reactions are initiated by addition of pre-warmed NADPH solution. The final reaction volume is 0.5 mL and contains 4.0 mg/mL human liver microsomes, 0.25 μM test compound, and 2 mM NADPH in 0.1 M potassium phosphate buffer, pH 7.4, and 3 mM MgCl2. The reaction mixtures are incubated at 37° C., and […] aliquots are removed at 0, 5, 10, 20, and 30 minutes and added to shallow-well 96-well plates which contain […] of ice-cold ACN (acetonitrile) with internal standard to stop the reactions. The plates are stored at 4° C. for 20 minutes after which […] of water is added to the wells of the plate before centrifugation to pellet precipitated proteins. Supernatants are transferred to another 96-well plate and analyzed for amounts of parent remaining by LC-MS/MS using an Applied Bio-systems API 4000 mass spectrometer. The same procedure is followed for the non-labeled, such as the non-deuterated counterpart of the compound and the positive control, 7-ethoxycoumarin (1 μM). Testing is done in triplicate.
Data analysis: The in vitro T1/2s for test compounds are calculated from the slopes of the linear regression of % parent remaining (In) vs incubation time relationship.
k=−[slope of linear regression of % parent remaining (In) vs incubation time] The apparent intrinsic clearance is calculated using the following equation: […]
Data analysis is performed using Microsoft Excel Software.

Male Sprague-Dawley rats = assay: Rat elevated zero maze test (model of anxiety); assay type: in vivo
Excerpt: The rat zero-maze model is a refined alternative to the plus-maze, the most widely used animal model of anxiety, and consists of an elevated annular platform, divided equally into four quadrants. Two opposite quadrants are enclosed by Perspex walls on both the inner and the outer edges of the platform, while the remaining two opposite quadrants are open being enclosed only by a Perspex “lip”. Animals will show a preference for the closed areas, and avoidance of the open sections is assumed to stem from a rodent's natural aversion to open, exposed spaces. The primary index of anxiety, which reflect changes in open arm preference, is the percentage of time spent on the open areas. A reduction in the amount of activity on the open areas is considered to reflect an increase in anxiety while an increase in time in the open arms is indicative of an anxiolytic effect. Other, ethologically-based behaviors are also assessed as indices of anxiety including total open arm entries, total line crossings, and the frequency of exploratory head dipping over the edge of the platform (HDIPS). • Shepherd, J K; Grewel, SS; Fletcher, A; Bill, DJ; Dourish, C T (1994) Behavioural and pharmacological validation of the elevated “zero-maze” as an animal model of anxiety. Psychopharmacol., 116:56-64.
Male Sprague-Dawley 200-250 g (Envigo UK) rats were used. Animals were group-housed (5 per cage; cage size: 40×40×20 cm) in a temperature-controlled environment (22±2° C.), under a 12 h light-dark cycle (lights on: 08:00 hours) for one week prior to testing. Food and water were freely available. Number of animals per group=5. Animals were moved into the experimental room 16-24 hours before testing.
The elevated 0-maze comprises a black Perspex annular platform (105 cm diameter, 10 cm width) elevated to 65 cm above ground level, divided equally into four quadrants. Two opposite quadrants are enclosed by clear red Perspex walls (27 cm high) on both the inner and outer edges of the platform, while the remaining two opposite quadrants are surrounded only by a Perspex “lip” (1 cm high) which serves as a tactile guide to animals on these open areas.
Subjects were weighed and tail marked before being injected. After a specified pre-treatment time, subjects were placed in a closed quadrant and a 5-min test period were recorded on videotape for subsequent analysis. The maze was cleaned with 5% methanol/water solution and dried thoroughly between test sessions. Behavioural measures comprise percentage time spent on the open areas (% TO). Animals are scored as being in the open area when all four paws were in an open quadrant and in the closed area only when all four paws have passed over the open-closed divide. All testing were carried out between 9.00 and 16.00 hours.
IP: MDAI (HCl salt with 82.94% free base content) was formulated in Vehicle 1 (Saline) for injection to concentrations of […] to provide doses of 0.15, 0.31, 0.625, 1.25 and 2.5 mg/kg when administered ip in 5 mL/kg dosing volumes.
Chlordiazepoxide was formulated in Vehicle 1 (saline) to a concentration of 1.2 mg/mL to provide a dose of 6 mg/kg when administered ip in 5 mL/kg dosing volumes.
35 male Sprague-Dawley rats in treatment groups of 2 or 5, was intraperitoneally dosed with either Vehicle 1 (saline) or MDAI at 1 of 5 dose levels (0.15, 0.31, 0.625, 1.25 and 2.5) or chlordiazepoxide (6 mg/kg) in 5 mL/kg injection volumes. Thirty min later at T=0, rats were individually placed in a closed arm of the zero-maze and behavior assessed by a “blind” observer using remote video monitoring over the subsequent 5 min. The animal was then removed and the maze carefully wiped with 5% methanol/water solution before the next test was begun. Three rats from the vehicle group, 3 rats from the 2.5 mg/kg MDAI group, and 3 rats from the CDP group were tested on a separate day from the other rats.
Data was analysed with Statistica software (Statsoft USA version 10.0). […]

[2] = Double-blind, randomized, placebo-controlled clinical trial of MDAI-assisted psychotherapy in PTSD; assay type: in vivo
Description: A multicenter, randomized, double-blind, placebo-controlled trial is conducted to assess the efficacy and safety of MDAI-assisted psychotherapy versus psychotherapy with placebo control in participants diagnosed with at least moderate post-traumatic stress disorder (PTSD).
This multicenter, randomized, double-blind, placebo-controlled trial is conducted at various sites in the United States with IRB approval from each study site. A flexible dose of MDAI hydrochloride salt or placebo, followed by a supplemental half-dose unless contraindicated by patient's previous response or medical history, is also administered during the Treatment Period with psychotherapy in at least 3 blinded monthly Experimental Sessions. The Supplemental Dose extends the duration of drug effects on the participants during an Experimental Session. An optional Risk Evaluation and Mitigation Strategy (REMS) Protocol may be implemented for MDAI and placebo-groups. The Treatment Period lasts for approximately 12 weeks. During the Treatment Period, each Experimental Session is followed by three Intervening Sessions of non-drug psychotherapy. Each Experimental Session involves an overnight stay. The Primary Outcome measure, the change in Clinician Administered PTSD Scale for DSM-5 (CAPS-5), is determined by a blinded Independent Rater (IR) pool multiple times throughout the study. The study consists of separate periods for each participant. Initially, prospective participants undergo a Screening Period involving an initial eligibility assessment, a medical history intake, informed consent, and enrollment of eligible participants. Next, a Preparation Period is undertaken for enrolled participants involving medication tapering and clinical baseline assessments to confirm each participant meets enrollment criteria. As part of the Preparation Period, a detailed assessment of co-morbidities to PTSD is recorded. Participants may remain on prescribed courses of selective serotonin reuptake inhibitor (SSRI) or serotonin and norepinephrine reuptake inhibitor (SNRI) treatment. Dosages and/or frequency of administration of a prescribed SSRI or SNRI may be adjusted to fit within study parameters. Participants may be required to taper a prescribed course of medication in order to maintain eligibility within the study. The Treatment Period consists of three monthly Experimental Sessions and associated Intervening Sessions of integrative behavioral psychotherapy. The Treatment Period lasts approximately 12 weeks. Following the Treatment Period is a Follow-up Period and Study Conclusion. During the Follow-up Period and Study Conclusion, participants complete 4 weeks with no study visits, followed by a Study Conclusion visit.
This study compares the effects of three blinded Experimental Sessions of psychotherapy in combination with flexible doses of MDAI or placebo administered as described below. Non-drug preparatory and intervening psychotherapy sessions are also included. Patient's weight is determined for dosage calculation. Initial dose is 100 mg unless this will result in a dosage of less than 1.5 mg/kg of patient weight. Initial dose thereby adjusted upward in 50 mg increments to deliver the lowest dose possible of at least 1.5 mg/kg of patient weight. Initial dose for Experimental Session 2 and 3 is cumulative dose calculated by adding the initial dose plus REMS protocol dose used the previous Experimental Session for each patient.
Randomization occurs prior to the initiation of Experimental Session 1. Each participant is provided the next randomized number in a sequence by a blinded study monitor. Participants are then randomized, according to a computer-generated randomization schedule, […] to MDAI or placebo. The randomization schedule is prepared and implemented by an independent statistician. Participants, clinicians, and study teams are blinded to treatment allocation. MDAI treatment groups may be subjected to anxiogenic effects due to underdosing of participants. […]

[3] = cited from earlier work
[4] = Progress in Neuro-Psychopharmacology & Biological Psychiatry 69, 2016, 49-59; cited from earlier work
[5] = 6 mg/kg ip, 30 min before test, vs vehicle
[6] = at Study Conclusion, vs placebo-treated controls

In the case of `[2H]C1(N)Cc2cc3c(cc2C1([2H])[2H])OCO3` (racemic) [Compound 3, 6,7,7-Trideuterio-5H-cyclopenta[f][1,3]benzodioxol-6-amine hydrochloride], the half-life at 0.25 μM [1] is reported as 7.42 h, the microsomal CLint at 0.25 μM [1] is reported as 3.12 µL/min/mg and the “in vitro clearance compared with MDAI HCl salt (reference compound)” value [1] is reported as “significantly lower”.
Work on `COc1ccc2c(c1)[C@]13CCCC[C@@H]1[C@H](C2)N(C)CC3` [dextromethorphan] yielded a half-life at 0.25 μM [1] of 0.433 h and a microsomal CLint at 0.25 μM [1] of 53.5 µL/min/mg.
In the case of `[2H]C1([2H])Oc2cc3c(cc2O1)C([2H])([2H])C([2H])(N)C3` (racemic) [Compound 4, 2,2,6,7,7-Pentadeuterio-5H-cyclopenta[f][1,3]benzodioxol-6-amine hydrochloride], the half-life at 0.25 μM [1] is reported as 7.97 h, the microsomal CLint at 0.25 μM [1] is reported as 2.9 µL/min/mg and the “in vitro clearance compared with MDAI HCl salt (reference compound)” value [1] is reported as “significantly lower”.
With `[2H]C1([2H])Oc2cc3c(cc2O1)C([2H])([2H])C([2H])(N)C3([2H])[2H]` [Compound 2, 2,2,5,5,6,7,7-Heptadeuteriocyclopenta[f][1,3]benzodioxol-6-amine Hydrochloride] the “half-life and intrinsic clearance compared to MDAI HCl (reference compound)” value [1] was “exhibit differences”, the half-life at 0.25 μM [1] was 3.83 h and the microsomal CLint at 0.25 μM [1] was 6.04 µL/min/mg.
In the case of `[2H]C1([2H])Oc2cc3c(cc2O1)CC(N)C3` [Compound 1, 2,2-Dideuterio-6,7-dihydro-5H-cyclopenta[f][1,3]benzodioxol-6-amine Hydrochloride], the “half-life and intrinsic clearance compared to MDAI HCl (reference compound)” value [1] is reported as “exhibit differences”, the half-life at 0.25 μM [1] is reported as 3.27 h and the microsomal CLint at 0.25 μM [1] is reported as 7.09 µL/min/mg.
With `CNC1=Nc2ccc(Cl)cc2C(c2ccccc2)=[N+]([O-])C1` [CDP, Chlordiazepoxide] the “frequency of HDIPS” value (Male Sprague-Dawley rats; [5]) was “trend towards increased”, the “percentage of time in the open arms (% TO)” value (shortened to “percentage of time … (% TO)”) (Male Sprague-Dawley rats; [5]) was “significant increase” and the total line crossings (Male Sprague-Dawley rats; [5]) was “trend towards increased”. The “total open arm entries” value (Male Sprague-Dawley rats; [5]) was “trend towards increased”.
For `NC1Cc2cc3c(cc2C1)OCO3` [MDAI, 5,6-Methylenedioxy-2-aminoindane], the half-life at 0.25 μM [1] was 3.42 h, the microsomal CLint at 0.25 μM [1] was 6.78 µL/min/mg and the “percentage of time … (% TO)” value (Male Sprague-Dawley rats; 0.625 mg/kg ip, 30 min before test, vs vehicle or any other dose (FIG. 1)) was “numerical increase”. For the same compound, the “percentage of time … (% TO)” value (Male Sprague-Dawley rats; doses too low or too high (0.15, 0.31, 1.25, 2.5 mg/kg ip)) was “opposite effect”, the “total open arm entries” value (Male Sprague-Dawley rats; higher and lower doses (0.15, 0.31, 1.25, 2.5 mg/kg ip), FIG. 2) was “trended towards an anxiogenic effect” and the “total open arm entries” value (Male Sprague-Dawley rats; middle dose (0.625 mg/kg ip), FIG. 2) was “increase vs placebo that trended towards significance”. For the same compound, the “CAPS-5 assessments compared to placebo-treated controls” value ([2]; Intervening Session 1C, 2C, 3C and Study Conclusion) was “Significant improvements”, the “CAPS-5 assessment compared to the placebo group” value ([2]; PTSD participants, at Study Conclusion) was “significant mean reduction” and the “lessening daytime sleepiness as measured by ESS” value ([2]; at Study Conclusion) was “significant improvement”. For the same compound, the adverse anxiogenic incidents [2, 6] was “without a significant increase”, the “clinician-rated functional impairment score as measured by SDS” value [2, 6] was “significant improvement” and the “depression as measured by HAM-D” value [2, 6] was “significant improvement”. The “Oral MDAI dose, drug activity level Threshold” value [3] was 40 mg, the “Oral MDAI dose, drug activity level Very Strong” value [3] was no less than 300 mg and the “toxicity reported associated with MDAI intoxication” value [4] was “serotonin syndrome”.
`[2H]C1([2H])c2cc3c(cc2C([2H])([2H])C1([2H])N)OCO3` [Compound 5, 5,5,6,7,7-Pentadeuteriocyclopenta[f][1,3]benzodioxol-6-amine hydrochloride] gave a half-life at 0.25 μM [1] of 3.42 h and a microsomal CLint at 0.25 μM [1] of 6.78 µL/min/mg.
